These results are taken from PMC5843908, “Detection of PRMT1 inhibitors with stopped flow fluorescence” (Signal Transduction and Targeted Therapy, 2018).

Assay [1] deals with PRMT1 (Homo sapiens, UniProt Q99873). The assay can be described thus: Stopped flow fluorescence assay of PRMT1 inhibition ([PRMT1] 0.2 µM, [SAM] 3.5 µM, [H4FL] 0.4 µM).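 Note: Stopped-flow traces of fluorescent H4FL peptide quenched on binding PRMT1 and restored on release, recorded 900 s, averaged over repeated drives and fit to a double-exponential model.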 The assay is classed as biochemical.
Source text: To obtain the IC50 of a specific inhibitor, the relative activities of the enzyme in presence of different concentrations of the inhibitor are required (equation 1).[37] […] By adding different concentrations of the inhibitor to the reaction mixture, the relative activity of the enzyme can be obtained by normalizing K to the reaction rate without the inhibitor, and then calculate the IC50 value using equation 1. In our stopped flow fluorescence assay, the reaction rate of Phase I and Phase II can be obtained by approximating and deriving the double-exponential equation (equation 2). In Phase I, during a very short period of time (where t is small), the curve is nearly linear, and the exponential equation can be approximately described as F1 = a · (−k1) · t. Therefore, the derivation of F1 equals –k1∙a, which is the slope of Phase I. Similarly, the curve of Phase II at early stage can be approximately described as F2 = b · (−k2) · t. This derivation of F2 equals –k2∙b, which is the slope of Phase II. The slopes at various inhibitor concentrations, normalized to the slope in the absence of inhibitor, can be used to obtain the corresponding relative enzyme activity from which the potency value (IC50) of the inhibitor can be calculated with equation 1.
In a stopped flow fluorescence assay, the binding of H4FL to PRMT1 (or the PRMT1—cofactor complex) quenches the peptide fluorescence, while release of the peptide restores the fluorescence. […] The widths of the entrance and exit slits of the monochromator were set to 0.5 mm. An equal volume of samples from two syringes was driven into the observation cell for mixing measurements. The H4FL concentration in all experiments was 0.4 μM. […] The fluorescent signal was recorded for 900 seconds, with 10,000 data points in total. Data from four to six drives were collected and averaged for each curve.
After averaging the shot data, the association time courses were fitted to a double-exponential function (equation 2) using GraphPad Prism (CA, USA). […] F is the fluorescence intensity at time t, k1, and k2 are the rate constants for Phase I and Phase II, a is the amplitude of the fluorescence change for k1, and b is the amplitude of the fluorescence change for k2. Simulation curves based on the values of a, b, k1, and k2 at fixed c = 1 were produced using Matlab. The IC50 value of inhibitors is determined by equation 1 using GraphPad Prism (CA, USA).
Assay [2] concerns PRMT1. On the set-up: method as in earlier work. Particulars: binary binding to PRMT1; ref 2 (supplement; Feng et al. 2011); cited from earlier work.

Sequence of PRMT1 (Homo sapiens, UniProt Q99873) (Q99873 29-371): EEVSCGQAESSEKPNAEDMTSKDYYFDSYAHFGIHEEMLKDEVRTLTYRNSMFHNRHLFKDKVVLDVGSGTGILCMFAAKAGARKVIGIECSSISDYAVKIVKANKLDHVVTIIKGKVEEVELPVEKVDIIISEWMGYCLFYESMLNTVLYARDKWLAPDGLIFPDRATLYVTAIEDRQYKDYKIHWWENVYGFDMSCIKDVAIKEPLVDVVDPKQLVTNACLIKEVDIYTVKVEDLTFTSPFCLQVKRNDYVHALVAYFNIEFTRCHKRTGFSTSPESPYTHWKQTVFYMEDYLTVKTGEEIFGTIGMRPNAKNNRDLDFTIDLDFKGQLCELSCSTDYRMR

Take “acetyl-SGRme2aGKGGKGLGKGGAKRHRKVL [H4R3me2a]”: the “-b·k2 (slope of Phase II)” value stood at 0.000708 ± 1.5e-06 s⁻¹ on PRMT1 [1] ([H4R3Me2a] 0.025 µM); 0.00064 ± 1.51e-06 s⁻¹ at PRMT1 [1] ([H4R3Me2a] 0.05 µM); 0.000608 ± 1.59e-06 s⁻¹ on PRMT1 [1] ([H4R3Me2a] 0.1 µM); 0.000613 ± 1.75e-06 s⁻¹ on PRMT1 [1] ([H4R3Me2a] 0.25 µM); 0.000482 ± 2.06e-06 s⁻¹ on PRMT1 [1] ([H4R3Me2a] 0.5 µM); 0.000195 ± 1.96e-06 s⁻¹ on PRMT1 [1] ([H4R3Me2a] 1 µM). Also, on PRMT1 [1] ([H4R3Me2a] 2 µM), the “-b·k2 (slope of Phase II)” value is 0.000103 ± 2.25e-06 s⁻¹. Further, the “a (amplitude, Phase I)” value came to 0.1544 ± 3.91E-04 on PRMT1 [1] ([H4R3Me2a] 0.025 µM); 0.1589 ± 4.16E-04 at PRMT1 [1] ([H4R3Me2a] 0.05 µM); 0.1731 ± 3.91E-04 on PRMT1 [1] ([H4R3Me2a] 0.1 µM); 0.1692 ± 4.25E-04 at PRMT1 [1] ([H4R3Me2a] 0.25 µM); 0.1282 ± 4.32E-04 at PRMT1 [1] ([H4R3Me2a] 0.5 µM); 0.1156 ± 3.30E-04 at PRMT1 [1] ([H4R3Me2a] 1 µM). Also, on PRMT1 [1] ([H4R3Me2a] 2 µM), the “a (amplitude, Phase I)” value was found to be 0.0723 ± 3.03E-04. Besides, the “a·k1 (slope of Phase I)” value at PRMT1 [1] ([H4R3Me2a] 0.025 µM) came to 0.0108 ± 5.74e-05 s⁻¹; on PRMT1 [1] ([H4R3Me2a] 0.05 µM), 0.0106 ± 5.8e-05 s⁻¹; at PRMT1 [1] ([H4R3Me2a] 0.1 µM) it was 0.00927 ± 4.52e-05 s⁻¹; on PRMT1 [1] ([H4R3Me2a] 0.25 µM), 0.00914 ± 4.96e-05 s⁻¹; at PRMT1 [1] ([H4R3Me2a] 0.5 µM), 0.00584 ± 4.38e-05 s⁻¹; at PRMT1 [1] ([H4R3Me2a] 1 µM), 0.0041 ± 2.6e-05 s⁻¹. The “a·k1 (slope of Phase I)” value at PRMT1 [1] ([H4R3Me2a] 2 µM) is 0.00179 ± 1.72e-05 s⁻¹. Moreover, the “b (amplitude, Phase II)” value at PRMT1 [1] ([H4R3Me2a] 0.025 µM) is recorded as -0.1795 ± 1.47E-04; on PRMT1 [1] ([H4R3Me2a] 0.05 µM), -0.1863 ± 1.43E-04; at PRMT1 [1] ([H4R3Me2a] 0.1 µM) it was -0.1960 ± 1.50E-04; at PRMT1 [1] ([H4R3Me2a] 0.25 µM) it was -0.1883 ± 1.69E-04; on PRMT1 [1] ([H4R3Me2a] 0.5 µM), -0.1431 ± 2.10E-04; on PRMT1 [1] ([H4R3Me2a] 1 µM) it was -0.1396 ± 5.20E-04. Further, on PRMT1 [1] ([H4R3Me2a] 2 µM), the “b (amplitude, Phase II)” value is given as -0.07524 ± 5.65E-04. For the same substance, the “k1 (rate constant, Phase I)” value was 0.06982 ± 3.27E-04 s^-1 at PRMT1 [1] ([H4R3Me2a] 0.025 µM); 0.06665 ± 3.21E-04 s^-1 at PRMT1 [1] ([H4R3Me2a] 0.05 µM); 0.05356 ± 2.31E-04 s^-1 at PRMT1 [1] ([H4R3Me2a] 0.1 µM); 0.054 ± 2.60E-04 s^-1 at PRMT1 [1] ([H4R3Me2a] 0.25 µM); 0.04557 ± 3.06E-04 s^-1 on PRMT1 [1] ([H4R3Me2a] 0.5 µM); 0.0355 ± 2.01E-04 s^-1 on PRMT1 [1] ([H4R3Me2a] 1 µM). For the same substance, the “k1 (rate constant, Phase I)” value on PRMT1 [1] ([H4R3Me2a] 2 µM) turned out to be 0.02475 ± 2.15E-04 s^-1. Moreover, the “k2 (rate constant, Phase II)” value is listed as 0.003946 ± 7.72E-06 s^-1 on PRMT1 [1] ([H4R3Me2a] 0.025 µM); 0.003437 ± 7.65E-06 s^-1 at PRMT1 [1] ([H4R3Me2a] 0.05 µM); 0.003104 ± 7.73E-06 s^-1 at PRMT1 [1] ([H4R3Me2a] 0.1 µM); 0.003253 ± 8.83E-06 s^-1 on PRMT1 [1] ([H4R3Me2a] 0.25 µM); 0.00337 ± 1.35E-05 s^-1 at PRMT1 [1] ([H4R3Me2a] 0.5 µM); 0.001394 ± 1.31E-05 s^-1 on PRMT1 [1] ([H4R3Me2a] 1 µM). At PRMT1 [1] ([H4R3Me2a] 2 µM), the “k2 (rate constant, Phase II)” value was determined as 0.001365 ± 2.82E-05 s^-1.
As usually defined, the koff is the first-order rate constant of dissociation. The term kon denotes the second-order rate constant of association. As for “acetyl-SGRmeGKGGKGK(FL)GKGGAKRHRK [H4FLme1]”, in the assay with PRMT1 [2], the koff was 292 s⁻¹ and the kon is 2.3e+07 M⁻¹ s⁻¹.
